10 molecules from ChEMBL document CHEMBL1146106, “1-Phenyl-8-azabicyclo[3.2.1]octane ethers: a novel series of neurokinin (NK1) antagonists” (Bioorg Med Chem Lett, 2006) can be followed below.

In one assay the target is Substance-P receptor (Homo sapiens, UniProt P25103). Kind of assay: Displacement of [125I]-labeled substance P from human cloned NK1 receptor expressed in CHO cells. The class given is cell-based. (In a radioligand displacement assay an active substance lowers the binding of a labelled ligand.)
Chain of Substance-P receptor (P25103 whole entry): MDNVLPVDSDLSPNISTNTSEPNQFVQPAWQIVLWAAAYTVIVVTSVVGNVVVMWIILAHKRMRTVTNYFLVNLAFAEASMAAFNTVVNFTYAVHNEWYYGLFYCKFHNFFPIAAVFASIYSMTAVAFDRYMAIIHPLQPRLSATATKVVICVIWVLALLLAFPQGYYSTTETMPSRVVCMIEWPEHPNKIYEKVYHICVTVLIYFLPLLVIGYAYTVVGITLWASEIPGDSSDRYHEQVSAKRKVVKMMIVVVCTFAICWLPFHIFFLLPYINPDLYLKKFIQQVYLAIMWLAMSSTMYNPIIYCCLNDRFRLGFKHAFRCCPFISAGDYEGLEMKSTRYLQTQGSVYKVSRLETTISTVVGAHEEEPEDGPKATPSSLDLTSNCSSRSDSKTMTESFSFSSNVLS
For assay [1], the target named is Voltage-gated inwardly rectifying potassium channel KCNH2 (Homo sapiens, UniProt Q12809). Kind of assay: Displacement of [35S]-labeled MK499 from cloned hERG expressed in HEK cells. The class given is cell-based, HEK293.
Chain of Voltage-gated inwardly rectifying potassium channel KCNH2 (Q12809 whole entry): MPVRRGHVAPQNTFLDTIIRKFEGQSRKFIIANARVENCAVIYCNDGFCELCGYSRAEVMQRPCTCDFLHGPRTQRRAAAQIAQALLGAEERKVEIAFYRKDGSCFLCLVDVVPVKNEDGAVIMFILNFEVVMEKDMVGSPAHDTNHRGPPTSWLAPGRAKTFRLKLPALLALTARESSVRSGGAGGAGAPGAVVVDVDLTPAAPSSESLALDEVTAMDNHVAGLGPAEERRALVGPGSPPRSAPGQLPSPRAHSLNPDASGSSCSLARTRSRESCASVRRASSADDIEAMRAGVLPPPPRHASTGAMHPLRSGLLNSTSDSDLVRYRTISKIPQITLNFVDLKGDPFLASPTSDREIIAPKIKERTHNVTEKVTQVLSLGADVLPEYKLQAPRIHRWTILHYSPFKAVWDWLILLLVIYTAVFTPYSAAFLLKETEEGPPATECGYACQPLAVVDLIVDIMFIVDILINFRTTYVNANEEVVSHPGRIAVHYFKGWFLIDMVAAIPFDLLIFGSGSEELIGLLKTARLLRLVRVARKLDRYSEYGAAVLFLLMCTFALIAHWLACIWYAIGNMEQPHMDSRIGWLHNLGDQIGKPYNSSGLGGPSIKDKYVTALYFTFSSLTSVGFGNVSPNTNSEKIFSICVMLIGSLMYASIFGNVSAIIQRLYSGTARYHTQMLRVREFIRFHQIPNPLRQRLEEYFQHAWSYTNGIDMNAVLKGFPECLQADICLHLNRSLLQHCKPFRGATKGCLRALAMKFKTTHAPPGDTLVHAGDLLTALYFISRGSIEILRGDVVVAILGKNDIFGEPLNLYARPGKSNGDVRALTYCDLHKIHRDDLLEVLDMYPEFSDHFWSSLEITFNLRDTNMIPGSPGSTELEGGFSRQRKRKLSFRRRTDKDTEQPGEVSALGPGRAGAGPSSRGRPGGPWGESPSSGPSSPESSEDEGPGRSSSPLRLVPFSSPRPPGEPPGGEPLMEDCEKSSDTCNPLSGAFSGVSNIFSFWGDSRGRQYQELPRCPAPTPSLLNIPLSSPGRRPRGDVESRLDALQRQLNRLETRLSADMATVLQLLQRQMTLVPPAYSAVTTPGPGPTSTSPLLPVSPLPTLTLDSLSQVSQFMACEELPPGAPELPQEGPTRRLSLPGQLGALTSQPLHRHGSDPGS
In assay [2] the test system is Gerbil, jird. Description: Inhibition of GR-73632-induced foot tapping in iv dosed gerbil. The class given is functional. To be noted: Meriones, read-out: ID50 (the source's name).
The subject of assay [3] is Gerbil, jird. Description: Inhibition of GR-73632-induced foot tapping in iv dosed gerbils after 24 hrs. The class given is functional. To be noted: Meriones, read-out: ID50 (the source's name).
Assay [4] concerns Gerbil, jird. Kind of assay: Inhibition of GR-73632-induced foot tapping in gerbils at 3 mg/kg, iv. The class given is functional. To be noted: Meriones.
The subject of assay [5] is Gerbil, jird. Kind of assay: Inhibition of GR-73632 induced foot tapping in gerbils at 3 mg/kg, iv after 24 hrs. It counts as functional. To be noted: Meriones.

`C[C@H](OC1CCC2CCC1(c1ccccc1)N2)c1cc(C(F)(F)F)cc(C(F)(F)F)c1` (stereo partly specified): the IC50 (usually the point on the concentration scale where inhibition reaches its midpoint) at Substance-P receptor was found to be 200 nM.
As to `C[C@@H](OC1CCC2NC1(c1ccccc1)CC2c1nnnn1C)c1cc(C(F)(F)F)cc(C(F)(F)F)c1` (stereo partly specified), the Ki (as a rule, a dissociation constant, usually derived from enzyme kinetics or from competition with a known ligand) in assay [1] came out at 2800 nM. The ED50 in the assay with Gerbil, jird [2] was found to be 0.2 mg/kg; with Gerbil, jird [3], 0.8 mg/kg. At Substance-P receptor, this molecule displayed an IC50 of 1.2 nM.
As for `C[C@@H](OC1CCC2NC1(c1ccccc1)CC2c1nnn(C)n1)c1cc(C(F)(F)F)cc(C(F)(F)F)c1` (stereo partly specified), the affinity in assay [1] corresponds to a Ki of 1800 nM. Besides, the ED50 in the assay with Gerbil, jird [2] is 0.4 mg/kg; in the assay with Gerbil, jird [3], 1.1 mg/kg. Also, the half-inhibitory concentration (IC50) on Substance-P receptor was 0.5 nM.
For `C[C@@H](OC1CCC2CCC1(c1ccccc1)N2)c1cc(C(F)(F)F)cc(C(F)(F)F)c1` (stereo partly specified), the IC50 at Substance-P receptor amounted to 4.2 nM.
On to `O=S(=O)(c1ccccc1)C1CC2(c3ccccc3)NC1CCC2OCc1cc(C(F)(F)F)cc(C(F)(F)F)c1` (stereo unspecified), for which, in assay [1], the affinity, expressed as Ki, was 1300 nM. Also, the IC50 on Substance-P receptor was 2.8 nM.
Turning to `C[C@@H](OC1CCC2NC1(c1ccccc1)CC2S(=O)(=O)c1ccccc1)c1cc(C(F)(F)F)cc(C(F)(F)F)c1` (stereo partly specified), testing at 3 mg/kg with Gerbil, jird [4] gave an inhibition in vivo of 39%. On Substance-P receptor, this molecule returned an IC50 of 0.6 nM.
`Cn1nnc(C2(F)CC3(c4ccccc4)NC2CCC3OCc2cc(C(F)(F)F)cc(C(F)(F)F)c2)n1` (stereo unspecified): the Ki in assay [1] was above 10000 nM. At 3 mg/kg the inhibition in vivo in the assay with Gerbil, jird [5] was 11%. The molecule also returned an IC50 at Substance-P receptor of 1.5 nM.
Regarding `FC(F)(F)c1cc(COC2CCC3CCC2(c2ccccc2)N3)cc(C(F)(F)F)c1` (stereo unspecified), in assay [1], the Ki amounted to 300 nM. Also, the IC50 on Substance-P receptor was found to be 3 nM.
Regarding `Cn1nnc(C2CC3(c4ccccc4)NC2CCC3OCc2cc(C(F)(F)F)cc(C(F)(F)F)c2)n1` (stereo unspecified), the inhibition constant (Ki) in assay [1] turned out to be 100 nM. The ED50 in the assay with Gerbil, jird [2] stood at 0.3 mg/kg; with Gerbil, jird [3] it was 0.6 mg/kg. At Substance-P receptor, this molecule registered an IC50 of 1 nM.
In the case of `C[C@@H](OC1CCC2NC1(c1ccccc1)CC2(F)c1nnn(C)n1)c1cc(C(F)(F)F)cc(C(F)(F)F)c1` (stereo partly specified), the Ki in assay [1] was above 5000 nM. Further, 3 mg/kg produced 23% inhibition in vivo with Gerbil, jird [5]. In addition, the IC50 on Substance-P receptor is 0.4 nM.
